{"source": "paper PMC10745768", "about": "“Stereoselective Synthesis and Antiproliferative Activity of Steviol-Based Diterpene 1,3-Aminoalcohol Regioisomers” (Molecules, 2023)", "key": {"[1]": {"tested_on": "HeLa cells", "parameters": "method as in earlier work", "details": "ref 24 (Bai D, Int J Mol Sci 2023, 10.3390/ijms24021121), cited from earlier work"}, "[2]": {"tested_on": "SiHa cells", "parameters": "method as in earlier work", "details": "ref 24 (Bai D, Int J Mol Sci 2023, 10.3390/ijms24021121), cited from earlier work"}, "[3]": {"tested_on": "MCF-7 cells", "parameters": "method as in earlier work", "details": "ref 24 (Bai D, Int J Mol Sci 2023, 10.3390/ijms24021121), cited from earlier work"}, "[4]": {"tested_on": "MDA-MB-231 cells", "parameters": "method as in earlier work", "details": "ref 24 (Bai D, Int J Mol Sci 2023, 10.3390/ijms24021121), cited from earlier work"}, "[5]": {"tested_on": "A2780 cells", "parameters": "method as in earlier work", "details": "ref 24 (Bai D, Int J Mol Sci 2023, 10.3390/ijms24021121), cited from earlier work"}, "[6]": {"tested_on": "NIH/3T3 fibroblast cells", "parameters": "method as in earlier work", "details": "ref 24 (Bai D, Int J Mol Sci 2023, 10.3390/ijms24021121), cited from earlier work"}, "[7]": {"tested_on": "HeLa cells", "assay": "MTT antiproliferative assay, HeLa", "type": "cell-based", "details": "Homo sapiens, 72 h; for inhibition at 10 µM / inhibition at 30 µM: read-out: Growth inhibition (%) ± SEM; for IC50: read-out: calculated IC50", "procedure,_shortened": "(§1)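 MTT viability readout (545 nm) following 72 h compound treatment at 10 µM and 30 µM; cisplatin as reference cytotoxic agent.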"}, "[8]": {"tested_on": "SiHa cells", "assay": "MTT antiproliferative assay, SiHa", "type": "cell-based", "details": "Homo sapiens, 72 h; for inhibition at 10 µM / inhibition at 30 µM: read-out: Growth inhibition (%) ± SEM; for IC50: read-out: calculated IC50", "procedure,_shortened": "as §1"}, "[9]": {"tested_on": "MCF-7 cells", "assay": "MTT antiproliferative assay, MCF-7", "type": "cell-based", "details": "Homo sapiens, MCF7; for inhibition at 10 µM: MCF-7, 10 μM; for inhibition at 10 µM / inhibition at 30 µM: 72 h, read-out: Growth inhibition (%) ± SEM; for inhibition at 30 µM: MCF-7, 30 μM; for IC50: MCF-7, 72 h, read-out: calculated IC50", "procedure,_shortened": "as §1"}, "[10]": {"tested_on": "MDA-MB-231 cells", "assay": "MTT antiproliferative assay, MDA-MB-231", "type": "cell-based", "details": "Homo sapiens; for IC50: MDA-MB-231, 72 h, read-out: calculated IC50; for inhibition at 10 µM: MDA-MB-231, 10 μM; for inhibition at 10 µM / inhibition at 30 µM: 72 h, read-out: Growth inhibition (%) ± SEM; for inhibition at 30 µM: MDA-MB-231, 30 μM", "procedure,_shortened": "as §1"}, "[11]": {"tested_on": "A2780 cells", "assay": "MTT antiproliferative assay, A2780", "type": "cell-based", "details": "Homo sapiens; for IC50: A2780, 72 h, read-out: calculated IC50; for inhibition at 10 µM: A2780, 10 μM; for inhibition at 10 µM / inhibition at 30 µM: 72 h, read-out: Growth inhibition (%) ± SEM; for inhibition at 30 µM: A2780, 30 μM", "procedure,_shortened": "as §1"}, "[12]": {"tested_on": "NIH/3T3 fibroblast cells", "assay": "MTT assay on non-malignant fibroblasts (selectivity)", "type": "cell-based, murine", "details": "Mus musculus, NIH3T3; for inhibition at 10 µM: NIH/3T3, 10 μM; for inhibition at 10 µM / inhibition at 30 µM: 72 h, read-out: Growth inhibition (%) ± SEM; for inhibition at 30 µM: NIH/3T3, 30 μM; for IC50: NIH/3T3, 72 h, read-out: calculated IC50", "procedure,_shortened": "as §1"}, "[13]": {"tested_on": "cancer cells and fibroblasts (HeLa, SiHa, MCF-7, MDA-MB-231, A2780, NIH/3T3)", "assay": "MTT antiproliferative assay, cancer cells and fibroblasts", "type": "cell-based", "details": "Fibroblast; range over all six cell lines; read-out: IC50 values against both the cancer cells and fibroblasts", "method": "The in vitro anticancer effects of the presented compounds were assessed using the standard MTT [3-(4,5-dimethylthiazol2-yl)-2,5-diphenyltetrazolium bromide] assay on the following human cancer cell lines: cervical (HeLa and SiHa), breast (MCF-7 and MDA-MB-231) and ovarian cancer (A2780). The selectivity of the tested compounds was determined on murine embryonal fibroblast cells (NIH/3T3). The utilised cell lines were purchased from the European Collection of Cell Cultures (Salisbury, UK). The cells were cultivated in Eagle’s minimal essential medium supplemented with 10% fetal bovine serum, 1% non-essential amino acids and 1% antibiotic-antimycotic complex (penicillin, streptomycin, amphotericin B) at 37 °C in a humidified atmosphere containing 5% CO2. All media and supplements were purchased from Lonza Group Ltd. (Basel, Switzerland). The cancer cells were seeded into 96-well plates (5000 cells/well) and incubated overnight, and the test compounds were applied in two different concentrations (10 µM and 30 µM) and incubated for another 72 h under cell-culturing conditions. […] After 72 h, 20 µL of the 5 mg/mL MTT solution was added to each well, and the plates were incubated for 4 h. […] The absorbances were measured at 545 nm using a microplate reader (SPECTROStar Nano, BMG Labtech, Offenburg, Germany). […] The IC50 values were calculated using sigmoid curve fitting. […]"}}, "note": "Where two headings read alike, the source gives them in different places."}
{"smiles": "N.N.[Cl][Pt][Cl]", "note": "[Cisplatin, cisplatin]", "values": [{"measurement": "Growth inhibition (%) ± SEM", "setting": "[1]; 10 μM", "result": "42.61 ± 2.33", "unit": "%"}, {"measurement": "Growth inhibition (%) ± SEM", "setting": "[1]; 30 μM", "result": "99.93 ± 0.26", "unit": "%"}, {"measurement": "Growth inhibition (%) ± SEM", "setting": "[2]; 10 μM", "result": "60.98 ± 0.92", "unit": "%"}, {"measurement": "Growth inhibition (%) ± SEM", "setting": "[2]; 30 μM", "result": "88.95 ± 0.53", "unit": "%"}, {"measurement": "Growth inhibition (%) ± SEM", "setting": "[3]; MCF-7, 10 μM", "result": "53.03 ± 2.29", "unit": "%"}, {"measurement": "Growth inhibition (%) ± SEM", "setting": "[3]; MCF-7, 30 μM", "result": "86.90 ± 1.22", "unit": "%"}, {"measurement": "Growth inhibition (%) ± SEM", "setting": "[4]; MDA-MB-231, 10 μM", "result": "67.51 ± 1.01", "unit": "%"}, {"measurement": "Growth inhibition (%) ± SEM", "setting": "[4]; MDA-MB-231, 30 μM", "result": "87.75 ± 1.10", "unit": "%"}, {"measurement": "Growth inhibition (%) ± SEM", "setting": "[5]; A2780, 10 μM", "result": "83.57 ± 1.21", "unit": "%"}, {"measurement": "Growth inhibition (%) ± SEM", "setting": "[5]; A2780, 30 μM", "result": "95.02 ± 0.28", "unit": "%"}, {"measurement": "Growth inhibition (%) ± SEM", "setting": "[6]; NIH/3T3, 10 μM", "result": "73.88 ± 1.63", "unit": "%"}, {"measurement": "Growth inhibition (%) ± SEM", "setting": "[6]; NIH/3T3, 30 μM", "result": "97.10 ± 0.15", "unit": "%"}]}
{"smiles": "COC(=O)[C@]1(C)CCC[C@@]2(C)[C@@H]3CC[C@@]4(CNCc5ccc(F)cc5)C[C@]3(CC[C@@H]21)C[C@H]4O", "note": "[Compound 23, (4R,4aS,6aR,8R,9S,11aR,11bS)-Methyl 9-(((4-fluorobenzyl)amino)methyl)-8-hydroxy-4,11b-dimethyltetradecahydro-6a,9-methanocyclohepta[a]naphthalene-4-carboxylate]", "values": [{"measurement": "inhibition at 10 µM", "setting": "[7]", "result": "70.1 ± 1.97", "unit": "%"}, {"measurement": "inhibition at 30 µM", "setting": "[7]", "result": "90.41 ± 0.78", "unit": "%"}, {"measurement": "IC50", "setting": "[7]", "result": 5.07, "unit": "µM"}, {"measurement": "inhibition at 10 µM", "setting": "[8]", "result": "68.1 ± 1.85", "unit": "%"}, {"measurement": "inhibition at 30 µM", "setting": "[8]", "result": "80.5 ± 3.16", "unit": "%"}, {"measurement": "IC50", "setting": "[8]", "result": 4.41, "unit": "µM"}, {"measurement": "inhibition at 10 µM", "setting": "[9]", "result": "95.81 ± 0.84", "unit": "%"}, {"measurement": "inhibition at 30 µM", "setting": "[9]", "result": "95.3 ± 1.05", "unit": "%"}, {"measurement": "IC50", "setting": "[9]", "result": 1.59, "unit": "µM"}, {"measurement": "IC50", "setting": "[10]", "result": 3.28, "unit": "µM"}, {"measurement": "inhibition at 10 µM", "setting": "[10]", "result": "92.99 ± 0.39", "unit": "%"}, {"measurement": "inhibition at 30 µM", "setting": "[10]", "result": "91.4 ± 0.39", "unit": "%"}, {"measurement": "IC50", "setting": "[11]", "result": 4.39, "unit": "µM"}, {"measurement": "inhibition at 10 µM", "setting": "[11]", "result": "80 ± 1.6", "unit": "%"}, {"measurement": "inhibition at 30 µM", "setting": "[11]", "result": "95.71 ± 0.58", "unit": "%"}, {"measurement": "inhibition at 10 µM", "setting": "[12]", "result": "81.8 ± 3.07", "unit": "%"}, {"measurement": "inhibition at 30 µM", "setting": "[12]", "result": "93.62 ± 0.77", "unit": "%"}, {"measurement": "IC50", "setting": "[12]", "result": 5.15, "unit": "µM"}, {"measurement": "IC50", "setting": "[13]", "result": "1.59 to 5.15", "unit": "µM"}]}
{"smiles": "COC(=O)[C@]1(C)CCC[C@@]2(C)[C@@H]3CC[C@@]4(CNCc5ccc(OC)cc5)C[C@]3(CC[C@@H]21)C[C@H]4O", "note": "[Compound 32, (4R,4aS,6aR,8R,9S,11aR,11bS)-Methyl 8-hydroxy-9-(((4-methoxybenzyl)amino)methyl)-4,11b-dimethyltetradecahydro-6a,9-methanocyclohepta[a]naphthalene-4-carboxylate]", "values": [{"measurement": "inhibition at 10 µM", "setting": "[7]", "result": "97.09 ± 0.79", "unit": "%"}, {"measurement": "inhibition at 30 µM", "setting": "[7]", "result": "97.18 ± 0.76", "unit": "%"}, {"measurement": "IC50", "setting": "[7]", "result": 3.09, "unit": "µM"}, {"measurement": "inhibition at 10 µM", "setting": "[8]", "result": "95.6 ± 2.12", "unit": "%"}, {"measurement": "inhibition at 30 µM", "setting": "[8]", "result": "96.5 ± 1.09", "unit": "%"}, {"measurement": "IC50", "setting": "[8]", "result": 5.77, "unit": "µM"}, {"measurement": "inhibition at 10 µM", "setting": "[9]", "result": "99.59 ± 0.13", "unit": "%"}, {"measurement": "inhibition at 30 µM", "setting": "[9]", "result": "99.88 ± 0.23", "unit": "%"}, {"measurement": "IC50", "setting": "[9]", "result": 1.04, "unit": "µM"}, {"measurement": "IC50", "setting": "[10]", "result": 2.3, "unit": "µM"}, {"measurement": "inhibition at 10 µM", "setting": "[10]", "result": "97.12 ± 0.6", "unit": "%"}, {"measurement": "inhibition at 30 µM", "setting": "[10]", "result": "96.3 ± 1.02", "unit": "%"}, {"measurement": "IC50", "setting": "[11]", "result": 3.78, "unit": "µM"}, {"measurement": "inhibition at 10 µM", "setting": "[11]", "result": "97.94 ± 0.6", "unit": "%"}, {"measurement": "inhibition at 30 µM", "setting": "[11]", "result": "98.01 ± 0.6", "unit": "%"}, {"measurement": "inhibition at 10 µM", "setting": "[12]", "result": "96.93 ± 0.92", "unit": "%"}, {"measurement": "inhibition at 30 µM", "setting": "[12]", "result": "96.6 ± 1.05", "unit": "%"}, {"measurement": "IC50", "setting": "[12]", "result": 3.71, "unit": "µM"}, {"measurement": "IC50", "setting": "[13]", "result": "1.04 to 5.77", "unit": "µM"}]}
